Measurements as given in ChEMBL document CHEMBL1130050, “Novel conformationally extended naphthalene-based inhibitors of farnesyltransferase” (J Med Chem, 1997).
Square brackets hold non-standard residues; d marks the D form. Peptide text beside a SMILES is read from it. Tic = O=C(O)[C@@H]1Cc2ccccc2CN1; NMeM = CN[C@@H](CCSC)C(=O)O; NMeV = CN[C@H](C(=O)O)C(C)C; Nle = CCCC[C@H](N)C(=O)O

Legend:
[1] = biological target: T1, Protein farnesyltransferase (Homo sapiens, UniProt P49354+P49356); experiment: Ratio of FTase IC50 values compared to compound 5; type: protein-complex assay
[2] = biological target: T1, Protein farnesyltransferase; experiment: Inhibition of [3H]FPP incorporation into human Ha-Ras by farnesyltransferase; type: protein-complex assay
[3] = biological target: T1, Protein farnesyltransferase; experiment: Ratio of FTase IC50 values compared to compound 8; type: protein-complex assay
[4] = biological target: T1, Protein farnesyltransferase; experiment: Percent inhibition of Ha-Ras protein processing in THAC (Ha-ras-transformed CCL39) cells at 10 uM; type: functional
[5] = biological target: T1, Protein farnesyltransferase; experiment: Inhibition of [3H]FPP incorporation into human Ki-Ras by farnesyltransferase; type: protein-complex assay

Ratio [1] | IC50 [2] [nM] | inhibition [4] [%] | Structure (SMILES) | further results
8 | 44 |  | CCCC[C@H](NC(=O)c1cccc2c(NC[C@@H](N)CS)cccc12)C(=O)O | 
 |  |  | CSCC[C@H](/N=C(\S)[C@H](Cc1ccccc1)NC(=O)[C@@H](NC(=O)[C@@H](N)CS)C(C)C)C(=O)O | Ratio [3]: 0.5
 | 950 |  | CCCC[C@H](NC(=O)[C@H](Cc1ccccc1)NC(=O)[C@@H](NC(=O)[C@@H](N)CS)C(C)C)C(=O)O (H-CVF[Nle]-OH) | Ratio [3]: 26
37.5 | 210 |  | CSCC[C@@H](C(=O)O)N(C)C(=O)c1cccc2c(NC[C@@H](N)CS)cccc12 | 
 |  | 0 | CSCC[C@H](NC(=O)c1cccc2c(NC(=O)[C@@H](N)CS)cccc12)C(=O)O | 
 |  | 10 | CSCC[C@H](NC(=O)c1cccc2cc(NC[C@@H](N)CS)ccc12)C(=O)O | IC50 [5]: 17.5 nM
58 | 325 | 20 | COC(=O)[C@H](CCSC)NC(=O)c1cccc2c(NC[C@@H](N)CS)cccc12 | 
 |  | 0 | CSCC[C@H](NC(=O)[C@@H]1Cc2ccccc2CN1C(=O)[C@H](C(C)C)N(C)C(=O)[C@@H](N)CS)C(=O)O (H-C[NMeV][Tic]M-OH) | 
54 |  |  | CSCC[C@H](NCc1cccc2c(NC[C@@H](N)CS)cccc12)C(=O)O | 
 | 1400 |  | CSCC[C@@H](C(=O)O)N(C)C(=O)[C@H](Cc1ccccc1)NC(=O)[C@@H](NC(=O)[C@@H](N)CS)C(C)C (H-CVF[NMeM]-OH) | Ratio [3]: 38
0.9 |  |  | CSCC[C@H](/N=C(\S)c1cccc2c(NC[C@@H](N)CS)cccc12)C(=O)O | 
 | 4.8 |  | CSCC[C@H](NC(=S)c1cccc2c(NC[C@@H](N)CS)cccc12)C(=O)O | 
1 |  | 0 | CSCC[C@H](NC(=O)c1cccc2c(NC[C@@H](N)CS)cccc12)C(=O)O | 
 |  |  | CSCC[C@H](NC[C@H](Cc1ccccc1)NC(=O)[C@@H](NC(=O)[C@@H](N)CS)C(C)C)C(=O)O | Ratio [3]: 60
 | 60 |  | CSCC[C@H](NC(=O)c1cccc2cc(NC(=O)[C@@H](N)CS)ccc12)C(=O)O | IC50 [5]: 1250 nM
 | 17 |  | CSCC[C@H](NC(=S)[C@H](Cc1ccccc1)NC(=O)[C@@H](NC(=O)[C@@H](N)CS)C(C)C)C(=O)O | 
 | 3400 |  | COC(=O)[C@H](CCSC)NC(=O)[C@H](Cc1ccccc1)NC(=O)[C@@H](NC(=O)[C@@H](N)CS)C(C)C (H-CVFM-OMe) | Ratio [3]: 92
 |  | > 50 | COC(=O)[C@H](CCSC)NC(=O)c1cccc2cc(NC[C@@H](N)CS)ccc12 | IC50 [5]: 500 nM
